# Patent US5399790A, “Non-steroid and non-prostanoid inhibitors of steroid and prostaglandin transforming enzymes” (Trustees of The University of Pennsylvania, priority 1993, dated 1995)
# “Also recorded” adds a separate entry of the source.
# T1: 3α-HSD (Rattus norvegicus, UniProt P23457)
# T1 construct: the purified 3α-HSD of rat liver cytosol; from tissue; host or cells: rat liver (cytosol)
# T1 sequence (P23457 1-322): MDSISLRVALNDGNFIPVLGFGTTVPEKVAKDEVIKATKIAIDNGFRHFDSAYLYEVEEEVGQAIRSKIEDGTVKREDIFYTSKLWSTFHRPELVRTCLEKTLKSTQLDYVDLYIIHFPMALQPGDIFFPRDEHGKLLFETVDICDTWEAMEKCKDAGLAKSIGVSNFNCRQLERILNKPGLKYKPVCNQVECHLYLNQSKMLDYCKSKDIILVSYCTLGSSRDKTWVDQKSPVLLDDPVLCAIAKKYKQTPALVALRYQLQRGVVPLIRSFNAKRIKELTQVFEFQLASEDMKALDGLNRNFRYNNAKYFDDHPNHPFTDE
# T2: cyclooxygenase (Ovis aries, UniProt P05979)
# T2 construct: cyclooxygenase obtained from sheep seminal vesicle microsomes; from tissue; host or cells: sheep seminal vesicle microsomes
# T2 sequence (P05979 25-600): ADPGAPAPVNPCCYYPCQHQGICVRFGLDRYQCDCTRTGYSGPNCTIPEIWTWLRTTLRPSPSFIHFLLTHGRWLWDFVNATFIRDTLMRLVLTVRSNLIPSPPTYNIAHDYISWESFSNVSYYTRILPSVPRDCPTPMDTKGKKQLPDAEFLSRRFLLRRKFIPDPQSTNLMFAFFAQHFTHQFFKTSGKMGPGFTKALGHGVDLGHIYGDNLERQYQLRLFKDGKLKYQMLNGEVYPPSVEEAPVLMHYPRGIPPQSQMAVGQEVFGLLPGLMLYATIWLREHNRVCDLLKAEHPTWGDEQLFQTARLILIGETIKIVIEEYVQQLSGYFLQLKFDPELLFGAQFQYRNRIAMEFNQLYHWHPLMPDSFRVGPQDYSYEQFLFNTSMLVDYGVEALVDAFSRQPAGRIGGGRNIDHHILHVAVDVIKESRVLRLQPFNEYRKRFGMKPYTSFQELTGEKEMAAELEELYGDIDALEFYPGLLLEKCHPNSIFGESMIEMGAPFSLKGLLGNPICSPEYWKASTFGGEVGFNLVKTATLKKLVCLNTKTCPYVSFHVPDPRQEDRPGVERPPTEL
# Legend:
# 3α-HSD [1] = target: T1, 3α-HSD; assay: time dependent inactivation of purified 3α-HSD; assay type: biochemical; details: for inactivation of 3α-HSD: result in words; for return of enzyme activity after inactivation: gel filtration or extensive dialysis of the inactivated enzyme
# Description: 3α-HSD (24 μM of purified enzyme) was incubated in systems (30 μl) containing 1.2 mM NAD^+, 10 mM potassium phosphate buffer pH 7.0, 1 mM EDTA and 5% acetonitrile as a co-solvent. Enzyme activity was followed over time by diluting an aliquot of the incubation mixture into a 1 ml assay containing: 2.3 mM NAD^+ and 75 μM androsterone in 0.1M potassium phosphate buffer pH 7.0, with 4% acetonitrile as a co-solvent. Initial rates were determined spectrophotometrically by measuring the rate of NADH formation at 340 nm. Because of the 100 fold or greater dilution of the enzyme into the assay, the initial rate measured is an indication of the enzyme activity remaining at that time. Semi-log plots of the amount of enzyme remaining vs. time are curvilinear (panel a). Initial rates of inactivation (kapp's) were estimated by taking tangents to these curves. Data was replotted as 1/kapp vs 1/allylic alcohol from which kinact (the rate constant for enzyme inactivation) and Ki (the binding constant of the allylic alcohol) were determined, (panel b).
# Inactivation of 3α-HSD (24 μM) was conducted in incubations (60 μl) of 10 mM potassium phosphate buffer pH 7.0 containing 1 mM EDTA and 4% acetonitrile as a co-solvent. After the initial enzyme activity was determined (see the legend of FIG. 2 for assay composition), the concentration of inactivator indicated (.cndot.=0 μM, .circle.=2.1 μM, =4.9 μM, .gradient.=10.0 μM, =15.0 μM, []24.0 μM) was added and the sample incubated at 25° C. Over time, samples were withdrawn and diluted into the standard assay to determine the amount of enzyme activity remaining. A secondary plot of the amount of enzyme inactivated vs. the amount of inhibitor added provided the stoichiometry of inactivation when corrected for nonspecific loss of enzyme activity (panel b). The continuous line without points is a theoretical line for a stoichiometry of 1:1.
# 3α-HSD [2] = target: T1, 3α-HSD; assay: steady state kinetic measurements and protection from inactivation of 3α-HSD; assay type: biochemical; details: for type of inhibition versus NAD+ binding / type of inhibition versus androsterone binding: steady state kinetic measurements
# Text: (§1) Three types of experimental evidence indicate that both the enone (III) and the acetylenic ketone (IV) alkylate the pyridine nucleotide binding domain in preference to the steroid binding site of the enzyme. […] Third, chromatographic experiments using the immobilized nucleotide analog Cibacron Blue indicate that both native enzyme and enzyme inactivated with the steroid affinity alkylator, 17β-bromoacetoxy-5α-androstan-17β-ol-3-one, bind tightly to the immobilized nucleotide analog. By contrast, enzyme inactivated by either (III) or (IV) has no affinity for the immobilized nucleotide analogue. This experimental evidence implies that the alkylators (III) and (IV) covalently modify the nucleotide binding domain of 3α-HSD.
# 3α-HSD [3] = target: T1, 3α-HSD; assay: chromatography of inactivated 3α-HSD on the immobilized nucleotide analog Cibacron Blue; assay type: binding
# Text: as §1
# cyclooxygenase = target: T2, cyclooxygenase; assay: time dependent inactivation of semi-purified cyclooxygenase (oxygen consumption); assay type: biochemical, sheep; details: for inactivation of cyclooxygenase / prostaglandin synthases: result in words
# Description: Semi-purified cyclooxygenase (480 μg) was pre-incubated in 100 μl systems containing the inhibitor concentrations indicated, along with 50 mM Tris-HCl (pH=7.2), 100 μM EDTA, 1 mM phenol, 1 μM hematin, 1% Tween, and 10% DMSO. At the time intervals shown, 5 μl aliquots were removed and diluted into a 600 μl assay system containing 100 mM potassium phosphate (pH=7.2), 1 mM phenol, and 100 μM arachidonic acid. The rate of oxygen consumption was then measured. The maximum rate of oxygen uptake observed in these assays was 1.875 μmoles of oxygen consumed per minute per milligram protein.
# [4] = tested on: 3α-HSD and 3(17)β-HSD (Pseudomonas testosteroni), 3α,20α-HSD (Streptomyces hydrogenase), 20α-HSD (rat ovary), 3β-HSD (rat liver), alcohol dehydrogenase …; assay: broad screen of the alcohols as suicide substrates of dehydrogenases; assay type: biochemical; details: eight dehydrogenases screened
# Description: A broad screen was conducted in which the allylic (I) and acetylenic alcohols (II) were examined as suicide substrates of the following enzymes: 3α-HSD and 3(17)β-HSD (Pseudomonas testosteroni), 3α,20α-HSD (Streptomyces hydrogenase), 20α-HSD (rat ovary), 3β-HSD (rat liver), alcohol dehydrogenase (yeast), lactate dehydrogenase (porcine heart) and 3α-HSD (rat liver).
# [5] = substrate: C#CC(O)c1ccc([N+](=O)[O-])cc1; assay: enzymatic oxidation of the allylic and acetylenic alcohols by 3α-HSD in the presence of NAD+; assay type: biochemical, rat; details: other: oxidation by 3α-HSD in the presence of NAD+; pH 7.0; 25.0 °C
# [6] = substrate: C=CC(O)c1ccc([N+](=O)[O-])cc1; assay: as above; assay type: biochemical, rat; details: other: oxidation by 3α-HSD in the presence of NAD+; pH 7.0; 25.0 °C
molecule,measurement,setting,value
"C#CC(=O)c1ccc([N+](=O)[O-])cc1 [IV, 1-(4'-nitrophenyl)-2-propyn-1-one]",inactivation of 3α-HSD,3α-HSD [1],stoichiometric inactivators; also recorded: rapid and stoichiometric
same,protection of 3α-HSD from inactivation by NAD+,3α-HSD [2],complete protection
same,protection of 3α-HSD from inactivation by androsterone and other compounds competitive for the steroid binding site,3α-HSD [2],slow the rate of inactivation but do not completely block this event
same,type of inhibition versus NAD+ binding,3α-HSD [2],competitive inhibitors
same,type of inhibition versus androsterone binding,3α-HSD [2],non-competitive or mixed inhibitors
same,binding of the inactivated enzyme to the immobilized nucleotide analog,3α-HSD [3],no affinity
same,inactivation of cyclooxygenase / prostaglandin synthases,cyclooxygenase,irreversibly inactivate prostaglandin synthases in a time dependent manner
same,inactivation of cyclooxygenase / prostaglandin synthases,cyclooxygenase; listed as iv,time and concentration dependent inactivation
"CC(=O)Oc1ccccc1C(=O)O [acetyl salicylate, reference compound]",cyclooxygenase inactivated,"cyclooxygenase; 100 μM, over 20 hours",50%
"C[C@]12CCC(=O)C[C@@H]1CC[C@@H]1[C@@H]2CC[C@]2(C)[C@@H](OC(=O)CBr)CC[C@@H]12 [17β-bromoacetoxy-5α-androstan-17β-ol-3-one, reference compound]",binding of the inactivated enzyme to the immobilized nucleotide analog,3α-HSD [3],bind tightly
"C=CC(=O)c1ccc([N+](=O)[O-])cc1 [III, 1-(4'-nitrophenyl)-2-propen-1-one]",inactivation of 3α-HSD,3α-HSD [1],stoichiometric inactivators; also recorded: too fast to accurately measure; also recorded: rapid and stoichiometric
same,protection of 3α-HSD from inactivation by NAD+,3α-HSD [2],complete protection
same,protection of 3α-HSD from inactivation by androsterone and other compounds competitive for the steroid binding site,3α-HSD [2],slow the rate of inactivation but do not completely block this event
same,type of inhibition versus NAD+ binding,3α-HSD [2],competitive inhibitors
same,type of inhibition versus androsterone binding,3α-HSD [2],non-competitive or mixed inhibitors
same,binding of the inactivated enzyme to the immobilized nucleotide analog,3α-HSD [3],no affinity
same,inactivation of cyclooxygenase / prostaglandin synthases,cyclooxygenase,irreversibly inactivate prostaglandin synthases in a time dependent manner
same,inactivation of cyclooxygenase / prostaglandin synthases,cyclooxygenase; listed as iii,time and concentration dependent inactivation
same,t1/2 life at saturation,cyclooxygenase; semi-purified cyclooxygenase from sheep seminal vesicle microsomes,1 to 2 min
same,IC50,"cyclooxygenase; semi-purified cyclooxygenase from sheep seminal vesicle microsomes, read-out: concentration required to inactivate 50% of the enzyme activity",837 µM
"C=CC(O)c1ccc([N+](=O)[O-])cc1 (stereo not drawn) [I, 1-(4'-nitrophenyl)-2-propen-1-ol]",t1/2 life for the enzyme,3α-HSD [1]; at a saturating allylic alcohol concentration,8 s
same,molecules of the allylic alcohol oxidized for every molecule of enzyme inactivated,3α-HSD [1]; comparison of the rate of oxidation with that of enzyme inactivation,≤ 10 molecules
same,partition ratio kcat/kinact,"3α-HSD [1]; estimated, theoretical limit 1",5.3
same,return of enzyme activity after inactivation,3α-HSD [1],enzyme activity does not return
same,Ki,"3α-HSD [1]; method of Kitz and Wilson, in the presence of NAD+",1.2 mM
same,inactivation of 3α-HSD,3α-HSD [1],highly selective mechanism-based inactivators; also recorded: time-dependent loss of 3α-HSD activity
same,selectivity as suicide substrate among the screened enzymes,[4],only rat liver 3α-HSD effectively oxidized the alcohols
"C#CC(O)c1ccc([N+](=O)[O-])cc1 (stereo not drawn) [II, 1-(4'-nitrophenyl)-2-propyn-1-ol]",return of enzyme activity after inactivation,3α-HSD [1],enzyme activity does not return
same,inactivation of 3α-HSD,3α-HSD [1],highly selective mechanism-based inactivators
same,selectivity as suicide substrate among the screened enzymes,[4],only rat liver 3α-HSD effectively oxidized the alcohols
"3α-HSD (Rattus norvegicus) (protein, the purified 3α-HSD of rat liver cytosol; from tissue; host or cells: rat liver (cytosol)) MDSISLRVALNDGNFIPVLGFGTTVPEKVAKDEVIKATKIAIDNGFRHFDSAYLYEVEEEVGQAIRSKIEDGTVKREDIFYTSKLWSTFHRPELVRTCLEKTLKSTQLDYVDLYIIHFPMALQPGDIFFPRDEHGKLLFETVDICDTWEAMEKCKDAGLAKSIGVSNFNCRQLERILNKPGLKYKPVCNQVECHLYLNQSKMLDYCKSKDIILVSYCTLGSSRDKTWVDQKSPVLLDDPVLCAIAKKYKQTPALVALRYQLQRGVVPLIRSFNAKRIKELTQVFEFQLASEDMKALDGLNRNFRYNNAKYFDDHPNHPFTDE",Vmax,[5],0.3 µmol/min/mg
same,Km,[6],2.02 mM
same,Vmax,[6],0.58 µmol/min/mg
